Values quoted from earlier work as cited in patent publication US20240398845A1, “USE OF SGLT-2 INHIBITORS FOR THE PREVENTION AND/OR TREATMENT OF CARDIAC DISEASES IN NON-HUMAN MAMMALS EXCLUDING FELINES, IN PARTICULAR CANINES” (BOEHRINGER INGELHEIM VETMEDICA GMBH, priority 2021, published 2024).

Tests used:
[1] = test system: canine atrial fibrillation model; settings: cited from earlier work
[2] = test system: mitral regurgitation-induced myocardial dysfunction; settings: cited from earlier work
[3] = test system: adults with heart failure and reduced ejection fraction; settings: with and without diabetes; cited from earlier work
[4] = test system: non-diabetic heart failure; settings: cited from earlier work
[5] = test system: Stage B2 dogs (MMVD); settings: cited from earlier work

Cc1ccc([C@@H]2O[C@H](CO)[C@@H](O)[C@H](O)[C@H]2O)cc1Cc1ccc(-c2ccc(F)cc2)s1 [canagliflozin, Canagliflozin]
atrial remodeling [1]: suppresses atrial remodeling

CCOc1ccc(Cc2cc([C@@H]3O[C@H](CO)[C@@H](O)[C@H](O)[C@H]3O)ccc2Cl)cc1 [dapagliflozin, Dapagliflozin]
cardiac hemodynamics and arrhythmogenesis [2]: improves cardiac hemodynamics and mitigates arrhythmogenesis

OC[C@H]1O[C@@H](c2ccc(Cl)c(Cc3ccc(O[C@H]4CCOC4)cc3)c2)[C@H](O)[C@@H](O)[C@@H]1O [empagliflozin, Empagliflozin]
risk for the composite endpoint of cardiovascular death or hospitalization due to heart failure [3]: reduced the risk
adverse left ventricular remodeling [4]: ameliorates adverse left ventricular remodeling

COc1ccc(-c2nc3ccc(C4=NNC(=O)CC4C)cc3[nH]2)cc1 (centres unmarked) [pimobendan]
preclinical period [5]: prolongation of the preclinical period
